Experimental data published in article PMC2483479 (Acta Crystallographica Section D: Biological Crystallography, 2007).

T1: E. coli KAS I (Escherichia coli, UniProt P0A953)
T1 sequence (P0A953 1-406): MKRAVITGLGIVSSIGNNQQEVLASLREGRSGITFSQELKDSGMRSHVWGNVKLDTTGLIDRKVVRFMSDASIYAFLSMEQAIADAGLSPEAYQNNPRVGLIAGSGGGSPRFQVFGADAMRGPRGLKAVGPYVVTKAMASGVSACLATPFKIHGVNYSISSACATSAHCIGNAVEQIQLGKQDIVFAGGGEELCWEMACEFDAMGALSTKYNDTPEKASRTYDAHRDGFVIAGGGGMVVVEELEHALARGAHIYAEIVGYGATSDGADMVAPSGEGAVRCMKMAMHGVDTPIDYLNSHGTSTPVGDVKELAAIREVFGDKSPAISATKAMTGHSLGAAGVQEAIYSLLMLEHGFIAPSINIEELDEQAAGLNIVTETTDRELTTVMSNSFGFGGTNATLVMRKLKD

B1: Escherichia coli β-ketoacyl-ACP synthase I (KAS I) (enzyme)
chain: T1 sequence (P0A953 1-406)

Legend:
E. coli KAS I = target: T1, E. coli KAS I; test: X-ray crystal structure; type: binding; details: 0.3 mM thiolactomycin, 2.3 M ammonium sulfate, 0.1 M Tris-HCl pH 7.5, 3% DMSO; active site
crystal structure = target: the molecule itself; test: crystal structure

Row | Molecule | X-ray crystal structure (crystal soaking) (E. coli KAS I) | binding result (crystal structure)
1 | C=C/C(C)=C/[C@@]1(C)SC(=O)C(C)=C1O [thiolactomycin] | clearly confirmed binding of thiolactomycin at the active site | –
2 | B1 | – | binds
